In patent US8618137B2 (priority 2008, dated 2013):
Where two headings read alike, the source gives them in different places. Marks after values point to notes of the source that are not given here.

Key:
Format in all cases: in vivo
[1] = tested on: Plasmopara viticola (the causal agent of grape downy mildew); experiment: Test A: grape downy mildew, grape seedlings inoculated then sprayed with test suspension, visual disease rating; details: 100 = 100% disease control, 0 = no control relative to controls
Description: General protocol for preparing test suspensions for Tests A-B2: The test compounds were first dissolved in acetone in an amount equal to 3% of the final volume and then suspended at the desired concentration (in ppm) in acetone and purified water (50/50 mix by volume) containing 250 ppm of the surfactant Trem® 014 (polyhydric alcohol esters). The resulting test suspensions were then used in Tests A-B2. Spraying a 200 ppm test suspension to the point of run-off on the test plants was the equivalent of a rate of 800 g/ha.
Grape seedlings were inoculated with a spore suspension of Plasmopara viticola (the causal agent of grape downy mildew) and incubated in a saturated atmosphere at 20° C. for 24 h. After a short drying period, the grape seedlings were sprayed with the test suspension to the point of run-off, then moved to a growth chamber at 20° C. for 5 days, and then back into a saturated atmosphere at 20° C. for 24 h. Upon removal, visual disease ratings were made.
Results for Tests A-B2 are given in Table A. In the Table, a rating of 100 indicates 100% disease control and a rating of 0 indicates no disease control (relative to the controls). All results are for 10 ppm except where followed by an “*” which indicates 40 ppm and “**” which indicates 200 ppm.

[2] = tested on: Phytophthora infestans (the causal agent of tomato late blight); details: sprayed the day before inoculation, 100 = 100% disease control, 0 = no control
[3] = tested on: Phytophthora infestans (the causal agent of tomato late blight); details: sprayed 17 h after inoculation, 100 = 100% disease control, 0 = no control
[4] = test suspension 10 ppm, listed as 2

1-[4-[4-[5-(2,6-difluorophenyl)-4,5-dihydro-3-isoxazolyl]-2-thiazolyl]-1-piperidinyl]-2-(4,5-dihydro-3,5-dimethyl-1H-pyrazol-1-yl]ethanone [Compound 40]
Test A rating (disease control) ([1]; test suspension 10 ppm): 100%
Test B1 rating (disease control) ([2]; test suspension 10 ppm): 100%
Test B2 rating (disease control) ([3]; test suspension 10 ppm): 98%

2,2,2-trifluoroacetaldehyde, O-[2-[4-[4-[5-(2,6-difluorophenyl)-4,5-dihydro-3-isoxazolyl]-2-thiazolyl]-1-piperidinyl]-2-oxoethyl]oxime [Compound 3]
Test A rating (disease control) ([1]; test suspension 10 ppm): 100%
Test B1 rating (disease control) ([2]; test suspension 10 ppm): 100%
Test B2 rating (disease control) ([3]; test suspension 10 ppm): 99%

CC(C)=NOC(C(=O)N1CCC(c2nc(C3=NOC(c4c(F)cccc4F)C3)cs2)CC1)c1ccccc1 (mixture of isomers) [compound 32]
Test A rating (disease control) ([1]; test suspension 40 ppm (*)): 94* %
Test B1 rating (disease control) ([2]; test suspension 40 ppm (*)): 100* %
Test B2 rating (disease control) ([3]; test suspension 40 ppm (*)): 92* %

CCC(ON=C(C)C)C(=O)N1CCC(c2nc(C3=NOC(c4c(F)cccc4F)C3)cs2)CC1 (mixture of isomers) [compound 39]
Test A rating (disease control) ([1]; test suspension 40 ppm (*)): 100* %
Test B1 rating (disease control) ([2]; test suspension 40 ppm (*)): 100* %
Test B2 rating (disease control) ([3]; test suspension 40 ppm (*)): 99* %

CC(=NOCC(=O)N1CCC(c2nc(C3=NOC(c4c(F)cccc4F)C3)cs2)CC1)C(F)(F)F (racemic) [Compound 4]
Test A rating (disease control) ([1]; test suspension 10 ppm): 100%
Test B1 rating (disease control) ([2]; test suspension 10 ppm): 100%
Test B2 rating (disease control) ([3]; test suspension 10 ppm): 99%

CCCC=NOCC(=O)N1CCC(c2nc(C3=NOC(c4c(F)cccc4F)C3)cs2)CC1 (racemic) [compound 10]
Test A rating (disease control) ([1]; test suspension 10 ppm): 98%
Test B1 rating (disease control) ([2]; test suspension 10 ppm): 95%
Test B2 rating (disease control) ([3]; test suspension 10 ppm): 88%

CSC(=NOCC(=O)N1CCC(c2nc(C3=NOC(c4c(F)cccc4F)C3)cs2)CC1)C(=O)N(C)C (racemic) [compound 11]
Test A rating (disease control) ([1]; test suspension 10 ppm): 0%
Test B1 rating (disease control) ([2]; test suspension 10 ppm): 26%
Test B2 rating (disease control) ([3]; test suspension 10 ppm): 0%

CSC(C)=NOCC(=O)N1CCC(c2nc(C3=NOC(c4c(F)cccc4F)C3)cs2)CC1 (racemic) [compound 12]
Test A rating (disease control) ([1]; test suspension 10 ppm): 17%
Test B1 rating (disease control) ([2]; test suspension 10 ppm): 47%
Test B2 rating (disease control) ([3]; test suspension 10 ppm): 0%

CC(C)=NOCC(=O)N1CCC(c2nc(C3=NOC(c4ccccc4C)C3)cs2)CC1 (racemic) [compound 14]
Test A rating (disease control) ([1]; test suspension 10 ppm): 100%
Test B1 rating (disease control) ([2]; test suspension 10 ppm): 98%
Test B2 rating (disease control) ([3]; test suspension 10 ppm): 88%

CCC(C)=NOCC(=O)N1CCC(c2nc(C3=NOC(c4c(F)cccc4F)C3)cs2)CC1 (racemic) [compound 16]
Test A rating (disease control) ([1]; test suspension 10 ppm): 100%
Test B1 rating (disease control) ([2]; test suspension 10 ppm): 100%
Test B2 rating (disease control) ([3]; test suspension 10 ppm): 99%

O=C(CON=CC(Cl)(Cl)Cl)N1CCC(c2nc(C3=NOC(c4c(F)cccc4F)C3)cs2)CC1 (racemic) [compound 17]
Test A rating (disease control) ([1]; test suspension 10 ppm): 66%
Test B1 rating (disease control) ([2]; test suspension 10 ppm): 97%
Test B2 rating (disease control) ([3]; test suspension 10 ppm): 47%

N#Cc1ccccc1C1CC(c2csc(C3CCN(C(=O)CON=CC(F)(F)F)CC3)n2)=NO1 (racemic) [compound 20]
Test A rating (disease control) ([1]; test suspension 10 ppm): 100%
Test B1 rating (disease control) ([2]; test suspension 10 ppm): 100%
Test B2 rating (disease control) ([3]; test suspension 10 ppm): 99%

CC(C)=NOCCC(=O)N1CCC(c2nc(C3=NOC(c4c(F)cccc4F)C3)cs2)CC1 (racemic) [compound 21]
Test A rating (disease control) ([1]; test suspension 40 ppm (*)): 100* %
Test B1 rating (disease control) ([2]; test suspension 40 ppm (*)): 100* %
Test B2 rating (disease control) ([3]; test suspension 40 ppm (*)): 98* %

CC=NOCC(=O)N1CCC(c2nc(C3=NOC(c4c(F)cccc4F)C3)cs2)CC1 (racemic) [compound 22]
Test A rating (disease control) ([1]; test suspension 10 ppm): 100%
Test B1 rating (disease control) ([2]; test suspension 10 ppm): 100%
Test B2 rating (disease control) ([3]; test suspension 10 ppm): 99%

CCC(=NOCC(=O)N1CCC(c2nc(C3=NOC(c4c(F)cccc4F)C3)cs2)CC1)C(F)(F)F (racemic) [compound 23]
Test A rating (disease control) ([1]; test suspension 10 ppm): 98%
Test B1 rating (disease control) ([2]; test suspension 10 ppm): 99%
Test B2 rating (disease control) ([3]; test suspension 10 ppm): 83%

CC(CC(C)C)=NOCC(=O)N1CCC(c2nc(C3=NOC(c4c(F)cccc4F)C3)cs2)CC1 (racemic) [compound 25]
Test A rating (disease control) ([1]; test suspension 40 ppm (*)): 93* %
Test B1 rating (disease control) ([2]; test suspension 40 ppm (*)): 100* %
Test B2 rating (disease control) ([3]; test suspension 40 ppm (*)): 58* %

CC(CC(F)(F)F)=NOCC(=O)N1CCC(c2nc(C3=NOC(c4c(F)cccc4F)C3)cs2)CC1 (racemic) [compound 26]
Test A rating (disease control) ([1]; test suspension 10 ppm): 100%
Test B1 rating (disease control) ([2]; test suspension 10 ppm): 100%
Test B2 rating (disease control) ([3]; test suspension 10 ppm): 99%

CC(C)C=NOCC(=O)N1CCC(c2nc(C3=NOC(c4c(F)cccc4F)C3)cs2)CC1 (racemic) [compound 27]
Test A rating (disease control) ([1]; test suspension 40 ppm (*)): 98* %
Test B1 rating (disease control) ([2]; test suspension 40 ppm (*)): 100* %
Test B2 rating (disease control) ([3]; test suspension 40 ppm (*)): 99* %

CC(C)CC=NOCC(=O)N1CCC(c2nc(C3=NOC(c4c(F)cccc4F)C3)cs2)CC1 (racemic) [compound 28]
Test A rating (disease control) ([1]; test suspension 40 ppm (*)): 98* %
Test B1 rating (disease control) ([2]; test suspension 40 ppm (*)): 95* %
Test B2 rating (disease control) ([3]; test suspension 40 ppm (*)): 68* %

CCC=NOCC(=O)N1CCC(c2nc(C3=NOC(c4c(F)cccc4F)C3)cs2)CC1 (racemic) [compound 30]
Test A rating (disease control) ([1]; test suspension 40 ppm (*)): 100* %
Test B1 rating (disease control) ([2]; test suspension 40 ppm (*)): 100* %
Test B2 rating (disease control) ([3]; test suspension 40 ppm (*)): 99* %

CC(C)(C)OC(=O)NCCC(=O)N1CCC(c2nc(C3=NOC(c4c(F)cccc4F)C3)cs2)CC1 (racemic) [compound 33]
Test A rating (disease control) ([1]; test suspension 200 ppm (**)): 0** %
Test B1 rating (disease control) ([2]; test suspension 200 ppm (**)): 68** %
Test B2 rating (disease control) ([3]; test suspension 200 ppm (**)): 0** %

O=C(CCNC(=O)C(F)(F)F)N1CCC(c2nc(C3=NOC(c4c(F)cccc4F)C3)cs2)CC1 (racemic) [compound 34]
Test A rating (disease control) ([1]; test suspension 200 ppm (**)): 33** %
Test B1 rating (disease control) ([2]; test suspension 200 ppm (**)): 97** %
Test B2 rating (disease control) ([3]; test suspension 200 ppm (**)): 40** %

O=C(CON=CC(F)(F)F)N1CCC(c2nc(C3=NOC(c4c(F)cccc4F)C3)cs2)CC1 (stereo not drawn) [Compound 3, 2,2,2-trifluoroacetaldehyde, O-[2-[4-[4-[5-(2,6-difluorophenyl)-4,5-dihydro-3-isoxazolyl]-2-thiazolyl]-1-piperidinyl]-2-oxoethyl]oxime]
Test A rating (disease control) ([1]; test suspension 10 ppm): 100%
Test B1 rating (disease control) ([2]; test suspension 10 ppm): 100%
Test B2 rating (disease control) ([3]; test suspension 10 ppm): 99%

O=C(CON=C1CCCC1)N1CCC(c2nc(C3=NOC(c4c(F)cccc4F)C3)cs2)CC1 (stereo not drawn) [Compound 5]
Test A rating (disease control) ([1]; test suspension 10 ppm): 95%
Test A rating (disease control) [1, 4]: 100%
Test B1 rating (disease control) ([2]; test suspension 10 ppm): 95%
Test B1 rating (disease control) [2, 4]: 100%
Test B2 rating (disease control) ([3]; test suspension 10 ppm): 98%
Test B2 rating (disease control) [3, 4]: 100%

C[C@H](c1ccccc1)N(C)C(=O)c1csc(C2CCN(C(=O)CON=CC(F)(F)F)CC2)n1 [Compound 31, N-methyl-N-[(1R)-1-phenylethyl]-2-[1-[2-[[(2,2,2-trifluoroethylidene)amino]oxy]acetyl]-4-piperidinyl]-4-thiazolecarboxamide]
Test A rating (disease control) ([1]; test suspension 40 ppm (*)): 100* %
Test B1 rating (disease control) ([2]; test suspension 40 ppm (*)): 100* %
Test B2 rating (disease control) ([3]; test suspension 40 ppm (*)): 99* %

CN(CC(=O)N1CCC(c2nc(C3=NOC(c4c(F)cccc4F)C3)cs2)CC1)N=CC(F)(F)F (stereo not drawn) [Compound 35]
Test A rating (disease control) ([1]; test suspension 40 ppm (*)): 100* %
Test B1 rating (disease control) ([2]; test suspension 40 ppm (*)): 100* %
Test B2 rating (disease control) ([3]; test suspension 40 ppm (*)): 99* %
